“Also recorded” adds a separate entry of the source.
Columns and labels:
Assay type in all cases: cell-based
HIV-1 NL4-3 = HIV-1 NL4-3 single-round infection assay in TZM-bl cells; settings: 200 TCID50, 2 days, luciferase, average of 3 independent experiments, Inactive = TC50/IC50 < 2
HIV-2 KR.X3 = HIV-2 KR.X3 single-round infection assay in TZM-bl cells; settings: for IC50 (µM) HIV-2 KR.X3: TZM-bl cells, 200 TCID50, 2 days, luciferase, average of 3 independent experiments, Inactive = TC50/IC50 < 2; for reduction of anti-HIV-2 activity after glycine addition compared to precursor: 13 versus 8, 14 versus 9
HIV-2 KR.X3-YU-2/V3 = HIV-2 KR.X3-YU-2/V3 chimeric virus infection assay in TZM-bl cells; settings: chimeric virus with V3 loop of HIV-1 YU-2; Figure 1, 4 independent experiments

| Structure (SMILES) | IC50 (µM) HIV-1 NL4-3 (HIV-1 NL4-3) | IC50 (µM) HIV-2 KR.X3 (HIV-2 KR.X3) | further results |
| --- | --- | --- | --- |
| C=C(C)[C@@H]1CC[C@]2(C(=O)O)CC[C@]3(C)[C@H](CC[C@@H]4[C@@]5(C)CC[C@H](O)C(C)(C)[C@@H]5CC[C@]43C)[C@@H]12 [Compound 1, Betulinic acid, reference compound] | did not exhibit anti-HIV-1 or anti-HIV-2 activity; also recorded: Inactive | did not exhibit anti-HIV-1 or anti-HIV-2 activity; also recorded: Inactive | – |
| C=C(C)[C@@H]1CC[C@]2(C(=O)NCCCCCNC(C)=O)CC[C@]3(C)[C@H](CC[C@@H]4[C@@]5(C)CC[C@H](O)C(C)(C)[C@@H]5CC[C@]43C)[C@@H]12 [Compound 2] | Inactive | Inactive | – |
| C=C(C)[C@@H]1CC[C@]2(C(=O)NCCCCCCNC(C)=O)CC[C@]3(C)[C@H](CC[C@@H]4[C@@]5(C)CC[C@H](O)C(C)(C)[C@@H]5CC[C@]43C)[C@@H]12 [Compound 3] | – | completely inactive | – |
| C=C(C)[C@@H]1CC[C@]2(C(=O)NCCCCCCCNC(C)=O)CC[C@]3(C)[C@H](CC[C@@H]4[C@@]5(C)CC[C@H](O)C(C)(C)[C@@H]5CC[C@]43C)[C@@H]12 [Compound 4, [[N-[3β-hydroxyl-lup-20(29)-en-28-oyl]-7-aminoheptyl]-carbamoyl]methane] | – | Inactive | – |
| C=C(C)[C@@H]1CC[C@]2(C(=O)NCCCCCCCCNC(C)=O)CC[C@]3(C)[C@H](CC[C@@H]4[C@@]5(C)CC[C@H](O)C(C)(C)[C@@H]5CC[C@]43C)[C@@H]12 [Compound 5] | – | Inactive | – |
| C=C(C)[C@@H]1CC[C@]2(C(=O)NCCCCCCNC(=O)CC(=O)O)CC[C@]3(C)[C@H](CC[C@@H]4[C@@]5(C)CC[C@H](O)C(C)(C)[C@@H]5CC[C@]43C)[C@@H]12 [Compound 6] | – | Inactive | – |
| C=C(C)[C@@H]1CC[C@]2(C(=O)NCCCC(=O)O)CC[C@]3(C)[C@H](CC[C@@H]4[C@@]5(C)CC[C@H](O)C(C)(C)[C@@H]5CC[C@]43C)[C@@H]12 [Compound 7] | Inactive | – | – |
| C=C(C)[C@@H]1CC[C@]2(C(=O)NCCCCCCCC(=O)O)CC[C@]3(C)[C@H](CC[C@@H]4[C@@]5(C)CC[C@H](O)C(C)(C)[C@@H]5CC[C@]43C)[C@@H]12 [Compound 11] | – | Inactive | – |
| C=C(C)[C@@H]1CC[C@]2(C(=O)NCCCC(=O)NCC(=O)O)CC[C@]3(C)[C@H](CC[C@@H]4[C@@]5(C)CC[C@H](O)C(C)(C)[C@@H]5CC[C@]43C)[C@@H]12 [Compound 12] | Inactive | – | – |
| C=C(C)[C@@H]1CC[C@]2(C(=O)NCCCCC(=O)NCC(=O)O)CC[C@]3(C)[C@H](CC[C@@H]4[C@@]5(C)CC[C@H](O)C(C)(C)[C@@H]5CC[C@]43C)[C@@H]12 [Compound 13] | Inactive | – | reduction of anti-HIV-2 activity after glycine addition compared to precursor (HIV-2 KR.X3): approximately 15 fold |
| C=C(C)[C@@H]1CC[C@]2(C(=O)NCCCCCC(=O)NCC(=O)O)CC[C@]3(C)[C@H](CC[C@@H]4[C@@]5(C)CC[C@H](O)C(C)(C)[C@@H]5CC[C@]43C)[C@@H]12 [Compound 14] | – | – | HIV-2 KR.X3-YU-2/V3 less sensitive compared to HIV-2 KR.X3 (HIV-2 KR.X3-YU-2/V3): approximately 5 fold; reduction of anti-HIV-2 activity after glycine addition compared to precursor (HIV-2 KR.X3): approximately 2 fold |
| C=C(C)[C@@H]1CC[C@]2(C(=O)NCCCCCCCC(=O)N[C@@H](CC(C)C)[C@H](O)CC(=O)O)CC[C@]3(C)[C@H](CC[C@@H]4[C@@]5(C)CC[C@H](O)C(C)(C)[C@@H]5CC[C@]43C)[C@@H]12 [Compound 17, reference compound] | – | – | anti-HIV-2 activity less potent than its anti-HIV-1 activity (HIV-2 KR.X3; HIV-2 KR.X3 versus HIV-1 NL4-3): about 70 times |
| C=C(C)[C@@H]1CC[C@]2(C(=O)NCCCCCC(=O)N[C@@H](Cc3ccc(O)cc3)C(=O)O)CC[C@]3(C)[C@H](CC[C@@H]4[C@@]5(C)CC[C@H](O)C(C)(C)[C@@H]5CC[C@]43C)[C@@H]12 [Compound 19] | Inactive | – | – |
| C=C(C)[C@@H]1CC[C@]2(C(=O)NCCCCCC(=O)NCC(=O)NCC(=O)O)CC[C@]3(C)[C@H](CC[C@@H]4[C@@]5(C)CC[C@H](O)C(C)(C)[C@@H]5CC[C@]43C)[C@@H]12 [Compound 21] | – | – | less potent against HIV-2 than 9 (HIV-2 KR.X3): approximately 10 fold |
| C=C(C)[C@@H]1CC[C@]2(C(=O)O)CC[C@]3(C)[C@H](CC[C@@H]4[C@@]5(C)CC[C@H](OC(=O)CC(C)(C)C(=O)O)C(C)(C)[C@@H]5CC[C@]43C)[C@@H]12 [Compound 22, 3-O-(3’,3’-dimethylsuccinyl)-betulinic acid, reference compound] | – | did not inhibit HIV-2 replication; also recorded: Inactive | – |

— paper PMC2788670 (Journal of medicinal chemistry, 2009)
